# Experimental data: patent publication US20190119251A1, “AMIDE-SUBSTITUTED ARYLTRIAZOLE DERIVATIVES AND USES THEREOF” (BAYER PHARMA AKTIENGESELLSCHAFT, priority 2016, published 2019)
# What was measured:
# human V1a receptor = molecular target: T1, human V1a receptor (Homo sapiens, UniProt P37288); test: Cellular in vitro assay for determining vasopressin receptor activity (V1a cell line, aequorin luminescence); format: cell-based; settings: for IC50: CHO cell line transfected with the human V1a receptor, agonist [Arg8]-vasopressin at EC50 concentration, read-out: IC50 hV1a; for ratio IC50 hV2/hV1a: ratio of cellular IC50 values, human V2 over human V1a
# T1 construct: expressed in transfected cells; host or cells: CHO K1 (Chinese hamster ovary), also stably transfected with modified aequorin
# T1 sequence (P37288 whole entry): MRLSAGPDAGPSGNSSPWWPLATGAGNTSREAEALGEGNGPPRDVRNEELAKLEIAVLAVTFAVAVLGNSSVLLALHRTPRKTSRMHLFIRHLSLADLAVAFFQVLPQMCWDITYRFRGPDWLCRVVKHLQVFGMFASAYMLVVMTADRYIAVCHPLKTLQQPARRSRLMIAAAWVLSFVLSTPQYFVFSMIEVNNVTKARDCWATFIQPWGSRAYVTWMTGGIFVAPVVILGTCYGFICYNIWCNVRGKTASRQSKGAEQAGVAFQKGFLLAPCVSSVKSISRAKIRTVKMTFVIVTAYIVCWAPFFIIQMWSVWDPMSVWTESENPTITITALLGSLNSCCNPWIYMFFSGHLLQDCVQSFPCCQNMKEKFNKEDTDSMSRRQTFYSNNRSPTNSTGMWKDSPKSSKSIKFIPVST
# Method: (§1) B-1. Cellular In Vitro Assay for Determining Vasopressin Receptor Activity
# (§2) The identification of agonists and antagonists of the V 1 a and V2 vasopressin receptors from humans, rats and dogs as well as the quantification of the activity of the compounds of the invention is carried out using recombinant cell lines. These cell lines originally derive from a hamster's ovary epithelial cell (Chinese Hamster Ovary, CHO K1, ATCC: American Type Culture Collection, Manassas, Va. 20108, USA). The test cell lines constitutively express the human, rat or dog
# (§3) V1 a or V2 receptors. In case of the Gag-coupled V 1 a receptors, cells are also stably transfected with a modified form of the calcium-sensitive photoproteins aequorin (human and rat V1a) or obelin (dog V 1 a), which, after reconstitution with the cofactor coelenterazine, emit light when there are increases in free calcium concentrations [Rizzuto R, Simpson A W, Brini M, Pozzan T, Nature 358, 325-327 (1992); Illarionov B A, Bondar V S, Illarionova V A, Vysotski E S, Gene 153 (2), 273-274 (1995)]. The resulting vasopressin receptor cells react to stimulation of the recombinantly expressed V 1 a receptors by intracellular release of calcium ions, which can be quantified by the resulting photoprotein luminescence. The Gs-coupled V2 receptors are stably transfected into cell lines expressing the gene for firefly luciferase under control of a CRE-responsible promoter. Activation of V2 receptors induces the activation of the CRE-responsive promoter via cAMP increase, thereby inducing the expression of firefly luciferase. The light emitted by photoproteins of V1a cell lines as well as the light emitted by firefly luciferase of V2 cell lines corresponds to the activation or inhibition of the respective vasopressin receptor. The bioluminescence of the cell lines is detected using a suitable luminometer [Milligan G, Marshall F, Rees S, Trends in Pharmacological Sciences 17, 235-237 (1996)].
# Vasopressin V1a Receptor Cell Lines:
# On the day before the assay, the cells are plated out in culture medium (DMEM/F12, 2% FCS, 2 mM glutamine, 10 mM HEPES, 5 μg/ml coelenterazine) in 384-well microtiter plates and kept in a cell incubator (96% humidity, 5% v/v CO2, 37° C.). On the day of the assay, test compounds in various concentrations are placed for 10 minutes in the wells of the microtiter plate before the agonist [Arg^8]-vasopressin at EC50 concentration is added. The resulting light signal is measured immediately in a luminometer.
# (§4) Table 1A below lists individual IC50 values for the compounds of the invention (including racemic mixtures as well as separated enantiomers) that were obtained from cell lines transfected with the human V1a or V2 receptor: […]
# human V2 receptor = molecular target: T2, human V2 receptor (Homo sapiens, UniProt P30518); test: Cellular in vitro assay for determining vasopressin receptor activity (V2 cell line, CRE-luciferase); format: cell-based; settings: CHO cell line transfected with the human V2 receptor; agonist [Arg8]-vasopressin at EC50 concentration; 3 hours incubation; read-out: IC50 hV2
# T2 construct: expressed in transfected cells; host or cells: CHO K1 (Chinese hamster ovary) expressing firefly luciferase under a CRE-responsive promoter
# T2 sequence (P30518 whole entry): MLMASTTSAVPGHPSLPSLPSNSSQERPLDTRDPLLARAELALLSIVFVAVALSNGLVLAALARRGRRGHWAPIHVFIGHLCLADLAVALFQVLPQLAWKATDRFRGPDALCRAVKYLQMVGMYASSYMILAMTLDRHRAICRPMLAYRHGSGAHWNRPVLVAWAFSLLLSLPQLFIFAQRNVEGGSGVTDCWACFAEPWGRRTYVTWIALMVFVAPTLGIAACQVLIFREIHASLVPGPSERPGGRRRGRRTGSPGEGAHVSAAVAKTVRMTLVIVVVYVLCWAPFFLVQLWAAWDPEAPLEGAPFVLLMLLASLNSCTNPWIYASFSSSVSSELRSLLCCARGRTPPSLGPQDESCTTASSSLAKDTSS
# Method: as §1, §2, §3
# Vasopressin V2 Receptor Cell Lines:
# On the day before the assay, the cells are plated out in culture medium (DMEM/F12, 2% FCS, 2 mM glutamine, 10 mM HEPES) in 384-well microtiter plates and kept in a cell incubator (96% humidity, 5% v/v CO2, 37° C.). On the day of the assay, test compounds in various concentrations and the agonist [Arg^8]-vasopressin at EC50 concentration are added together to the wells, and plates are incubated for 3 hours in a cell incubator. Upon addition of the cell lysis reagent Triton™ and the substrate luciferin, luminescence of firefly luciferase is measured in a luminometer.
# as §4
SMILES,IC50 (human V1a receptor) [nM],ratio IC50 hV2/hV1a (human V1a receptor),IC50 (human V2 receptor) [nM]
"Cc1ccccc1-n1nc(Cn2nc(-c3ccc(Cl)cc3)n(C[C@H](O)C(F)(F)F)c2=O)nc1C(N)=O [Example 19, 3-({3-(4-Chlorophenyl)-5-oxo-4-[(2S)-3,3,3-trifluoro-2-hydroxypropyl]-4,5-dihydro-1H-1,2,4-triazol-1-yl}methyl)-1-(2-methylphenyl)-1H-1,2,4-triazole-5-carboxamide]",0.65,7.5,4.91
"NC(=O)c1nc(Cn2nc(-c3ccc(Cl)cc3)n(C[C@H](O)C(F)(F)F)c2=O)nn1-c1c(Cl)cccc1Cl [Example 22, 3-({3-(4-Chlorophenyl)-5-oxo-4-[(2S)-3,3,3-trifluoro-2-hydroxypropyl]-4,5-dihydro-1H-1,2,4-triazol-1-yl}methyl)-1-(2,6-dichlorophenyl)-1H-1,2,4-triazole-5-carboxamide]",1.65,2.2,3.63
"Cc1cccc(C)c1-n1nc(Cn2nc(-c3ccc(Cl)cc3)n(C[C@H](O)C(F)(F)F)c2=O)nc1C(N)=O [Example 23, 3-({3-(4-Chlorophenyl)-5-oxo-4-[(2S)-3,3,3-trifluoro-2-hydroxypropyl]-4,5-dihydro-1H-1,2,4-triazol-1-yl}methyl)-1-(2,6-dimethylphenyl)-1H-1,2,4-triazole-5-carboxamide]",2.45,1.0,2.53
"NC(=O)c1nc(Cn2nc(-c3ccc(Cl)cc3)n(C[C@H](O)C(F)(F)F)c2=O)nn1-c1ccccc1[N+](=O)[O-] [Example 24, 3-({3-(4-Chlorophenyl)-5-oxo-4-[(2S)-3,3,3-trifluoro-2-hydroxypropyl]-4,5-dihydro-1H-1,2,4-triazol-1-yl}methyl)-1-(2-nitrophenyl)-1H-1,2,4-triazole-5-carboxamide]",2.6,11.7,30.5
"NC(=O)c1nc(Cn2nc(-c3ccc(Cl)cc3)n(C[C@H](O)C(F)(F)F)c2=O)nn1-c1c(F)cccc1F [Example 25, 3-({3-(4-Chlorophenyl)-5-oxo-4-[(2S)-3,3,3-trifluoro-2-hydroxypropyl]-4,5-dihydro-1H-1,2,4-triazol-1-yl}methyl)-1-(2,6-difluorophenyl)-1H-1,2,4-triazole-5-carboxamide]",2.95,2.2,6.45
"CC(C)c1ccccc1-n1nc(Cn2nc(-c3ccc(Cl)cc3)n(C[C@H](O)C(F)(F)F)c2=O)nc1C(N)=O [Example 28, 3-({3-(4-Chlorophenyl)-5-oxo-4-[(2S)-3,3,3-trifluoro-2-hydroxypropyl]-4,5-dihydro-1H-1,2,4-triazol-1-yl}methyl)-1-(2-isopropylphenyl)-1H-1,2,4-triazole-5-carboxamide]",4.85,13.3,64.5
"CCc1cccc(C)c1-n1nc(Cn2nc(-c3ccc(Cl)cc3)n(C[C@H](O)C(F)(F)F)c2=O)nc1C(N)=O [Example 31, 3-({3-(4-Chlorophenyl)-5-oxo-4-[(2S)-3,3,3-trifluoro-2-hydroxypropyl]-4,5-dihydro-1H-1,2,4-triazol-1-yl}methyl)-1-(2-ethyl-6-methylphenyl)-1H-1,2,4-triazole-5-carboxamide]",14.5,0.5,7.95
"NC(=O)c1nc(Cn2nc(-c3ccc(Cl)cc3)n(C[C@H](O)C(F)(F)F)c2=O)nn1-c1cccc(F)c1 [Example 32, 3-({3-(4-Chlorophenyl)-5-oxo-4-[(2S)-3,3,3-trifluoro-2-hydroxypropyl]-4,5-dihydro-1H-1,2,4-triazol-1-yl}methyl)-1-(3-fluorophenyl)-1H-1,2,4-triazole-5-carboxamide]",18.3,1.3,23.9

# Further compounds by falling IC50 (human V1a receptor), results first:
IC50 (human V1a receptor) [nM],ratio IC50 hV2/hV1a (human V1a receptor),IC50 (human V2 receptor) [nM],SMILES
14,0.7,9.75,"NC(=O)c1nc(Cn2nc(-c3ccc(Cl)cc3)n(C[C@H](O)C(F)(F)F)c2=O)nn1-c1ccccc1 [Example 30, 3-({3-(4-Chlorophenyl)-5-oxo-4-[(2S)-3,3,3-trifluoro-2-hydroxypropyl]-4,5-dihydro-1H-1,2,4-triazol-1-yl}methyl)-1-phenyl-1H-1,2,4-triazole-5-carboxamide]"
13.3,1.8,24.1,"NC(=O)c1nc(Cn2nc(-c3ccc(Cl)cc3)n(C[C@H](O)C(F)(F)F)c2=O)nn1-c1ccccc1F [Example 29, 3-({3-(4-Chlorophenyl)-5-oxo-4-[(2S)-3,3,3-trifluoro-2-hydroxypropyl]-4,5-dihydro-1H-1,2,4-triazol-1-yl}methyl)-1-(2-fluorophenyl)-1H-1,2,4-triazole-5-carboxamide]"
4.5,9.3,41.7,"NC(=O)c1nc(Cn2nc(-c3ccc(Cl)cc3)n(C[C@H](O)C(F)(F)F)c2=O)nn1-c1ccccc1OC(F)F [Example 27, 3-({3-(4-Chlorophenyl)-5-oxo-4-[(2S)-3,3,3-trifluoro-2-hydroxypropyl]-4,5-dihydro-1H-1,2,4-triazol-1-yl}methyl)-1-[2-(difluoromethoxy)phenyl]-1H-1,2,4-triazole-5-carboxamide]"
3.5,4.9,17,"NC(=O)c1nc(Cn2nc(-c3ccc(Cl)cc3)n(C[C@H](O)C(F)(F)F)c2=O)nn1-c1ccc(F)cc1Cl [Example 26, 1-(2-Chloro-4-fluorophenyl)-3-({3-(4-chlorophenyl)-5-oxo-4-[(2S)-3,3,3-trifluoro-2-hydroxypropyl]-4,5-dihydro-1H-1,2,4-triazol-1-yl}methyl)-1H-1,2,4-triazole-5-carboxamide]"
0.75,3.7,2.73,"CCc1ccccc1-n1nc(Cn2nc(-c3ccc(Cl)cc3)n(C[C@H](O)C(F)(F)F)c2=O)nc1C(N)=O [Example 20, 3-({3-(4-Chlorophenyl)-5-oxo-4-[(2S)-3,3,3-trifluoro-2-hydroxypropyl]-4,5-dihydro-1H-1,2,4-triazol-1-yl}methyl)-1-(2-ethylphenyl)-1H-1,2,4-triazole-5-carboxamide]"
0.75,7.0,5.25,"NC(=O)c1nc(Cn2nc(-c3ccc(Cl)cc3)n(C[C@H](O)C(F)(F)F)c2=O)nn1-c1c(F)cccc1Cl [Example 21, 1-(2-Chloro-6-fluorophenyl)-3-({3-(4-chlorophenyl)-5-oxo-4-[(2S)-3,3,3-trifluoro-2-hydroxypropyl]-4,5-dihydro-1H-1,2,4-triazol-1-yl}methyl)-1H-1,2,4-triazole-5-carboxamide]"
0.54,3.1,1.65,"CSc1ccccc1-n1nc(Cn2nc(-c3ccc(Cl)cc3)n(C[C@H](O)C(F)(F)F)c2=O)nc1C(N)=O [Example 18, 3-({3-(4-Chlorophenyl)-5-oxo-4-[(2S)-3,3,3-trifluoro-2-hydroxypropyl]-4,5-dihydro-1H-1,2,4-triazol-1-yl}methyl)-1-[2-(methylsulfanyl)phenyl]-1H-1,2,4-triazole-5-carboxamide]"
0.45,15.6,7,"NC(=O)c1nc(Cn2nc(-c3ccc(Cl)cc3)n(C[C@H](O)C(F)(F)F)c2=O)nn1-c1ccccc1Br [Example 17, 1-(2-Bromophenyl)-3-({3-(4-chlorophenyl)-5-oxo-4-[(2S)-3,3,3-trifluoro-2-hydroxypropyl]-4,5-dihydro-1H-1,2,4-triazol-1-yl}methyl)-1H-1,2,4-triazole-5-carboxamide]"
